Data reported in the supplement of paper PMC13380429.

How the values were obtained:
Details in all cases: 72 h
Vero E6 [1] = assay: drug sensitivity score (DSS) for viability; higher = more toxic; extreme values may be limits of the assay
Caco-2 [2] = assay: as above
Calu-3 [3] = assay: as above
U2OS [4] = assay: as above
HepG2 [5] = assay: as above
Vero E6 [6] = assay: relative viability EC50 (midpoint between 100% and the lowest measured viability); higher = less toxic
Caco-2 [7] = assay: as above
Calu-3 [8] = assay: as above
U2OS [9] = assay: as above
HepG2 [10] = assay: as above
Vero E6 [11] = assay: cell viability relative to DMSO; higher = less toxic
Caco-2 [12] = assay: as above
Calu-3 [13] = assay: as above
U2OS [14] = assay: as above
HepG2 [15] = assay: as above

Row | SMILES | drug sensitivity score (Vero E6 [1]) | drug sensitivity score (Caco-2 [2]) | drug sensitivity score (Calu-3 [3]) | drug sensitivity score (U2OS [4]) | drug sensitivity score (HepG2 [5]) | relative viability EC50 (Vero E6 [6]) | relative viability EC50 (Caco-2 [7]) | relative viability EC50 (Calu-3 [8]) | relative viability EC50 (U2OS [9]) | relative viability EC50 (HepG2 [10]) | cell viability (Vero E6 [11]; 1 nM) | cell viability (Vero E6 [11]; 10 nM) | cell viability (Vero E6 [11]; 100 nM) | cell viability (Vero E6 [11]; 1000 nM) | cell viability (Vero E6 [11]; 10000 nM) | cell viability (Caco-2 [12]; 1 nM) | cell viability (Caco-2 [12]; 10 nM) | cell viability (Caco-2 [12]; 100 nM) | cell viability (Caco-2 [12]; 1000 nM) | cell viability (Caco-2 [12]; 10000 nM) | cell viability (Calu-3 [13]; 1 nM) | cell viability (Calu-3 [13]; 10 nM) | cell viability (Calu-3 [13]; 100 nM) | cell viability (Calu-3 [13]; 1000 nM) | cell viability (Calu-3 [13]; 10000 nM) | cell viability (U2OS [14]; 1 nM) | cell viability (U2OS [14]; 10 nM) | cell viability (U2OS [14]; 100 nM) | cell viability (U2OS [14]; 1000 nM) | cell viability (U2OS [14]; 10000 nM) | cell viability (HepG2 [15]; 1 nM) | cell viability (HepG2 [15]; 10 nM) | cell viability (HepG2 [15]; 100 nM) | cell viability (HepG2 [15]; 1000 nM) | cell viability (HepG2 [15]; 10000 nM)
1 | COc1cc(NC(=O)c2cccc(-n3cc(NC(=O)Nc4cccc(C)c4)cn3)c2)cc(OC)c1OC [SR-3576] | 0 | 1.3 | 0.6 | 0 | 0 | > 10 µM | > 10 µM | > 10 µM | > 10 µM | > 10 µM | 101% | 102% | 97.2% | 96.6% | 95.9% | 104% | 105% | 101% | 85.2% | 87.7% | 91.1% | 93.9% | 93.4% | 93.1% | 81% | 100% | 102% | 100% | 99.6% | 91.1% | 98.3% | 99.4% | 94.1% | 95.3% | 99.4%
2 | CC1=NN(c2ccc(C(=O)O)cc2)C(=O)C1=Cc1ccc(-c2cc(C)c(C)cc2[N+](=O)[O-])o1 [C646] | 0 | 0 | 0.4 | 0 | 0 | > 10 µM | > 10 µM | > 10 µM | > 10 µM | > 10 µM | 97.3% | 102% | 100% | 100% | 99% | 87.3% | 90.5% | 101% | 94% | 98.1% | 106% | 98.1% | 89.3% | 89.6% | 98.9% | 102% | 95.6% | 98.8% | 94.9% | 92.9% | 90% | 102% | 92.5% | 93.7% | 90.5%
3 | CC(CNC1CCCCC1)OC(=O)c1ccccc1 (stereo not given) [hexylcaine] | 0 | 0 | 0 | 0 | 0 | > 10 µM | > 10 µM | > 10 µM | > 10 µM | > 10 µM | 97.3% | 102% | 96.8% | 93.1% | 105% | 99% | 88.5% | 98% | 105% | 102% | 104% | 107% | 95.2% | 103% | 95.5% | 103% | 101% | 99.1% | 103% | 104% | 106% | 102% | 91% | 88.5% | 102%
4 | CCCCCCCCCCCCCCCC(=O)OC(C)C [isopropyl-palmitate] | 0 | 0 | 0 | 0 | 0 | > 10 µM | > 10 µM | > 10 µM | > 10 µM | > 10 µM | 96% | 98.8% | 99% | 98.8% | 97.2% | 101% | 102% | 109% | 90.8% | 90.4% | 106% | 96.6% | 94.3% | 93.8% | 101% | 102% | 95.9% | 97.5% | 93.2% | 97.7% | 92.2% | 102% | 99% | 94.8% | 95.8%
5 | CC[C@]12C=CCN3CC[C@@]4(c5cc([C@@]6(C(=O)OC)C[C@@H]7C[C@@H](C(C)(F)F)CN(Cc8c6[nH]c6ccccc86)C7)c(OC)cc5N(C)[C@H]4[C@@](O)(C(=O)OC)[C@@H]1OC(C)=O)[C@@H]32 [Vinflunine Ditartrate] | 8.8 | 10.9 | 6.8 | 11.3 | 17 | 1.04 µM | 0.213 µM | 0.655 µM | 0.493 µM | 0.0789 µM | 102% | 99.5% | 103% | 64.1% | 24.3% | 88.1% | 104% | 77.4% | 55.2% | 41.2% | 108% | 101% | 90.2% | 69.3% | 45.9% | 101% | 98.1% | 87.5% | 48.6% | 23.1% | 107% | 95.1% | 61.2% | 32.8% | 34.3%
6 | Cc1ccc(C(=O)Nc2ccc(CN3CCN(C)CC3)c(C(F)(F)F)c2)cc1C#Cc1cnc2[nH]ncc2c1 [GZD824] | 16.6 | 10.1 | 13.9 | 15.4 | 17.2 | 0.365 µM | 1.17 µM | 0.497 µM | 0.42 µM | 0.297 µM | 103% | 102% | 86.5% | 19.1% | 0.2% | 102% | 98.6% | 86.7% | 59% | 2.4% | 96.7% | 86.8% | 76.8% | 45.9% | 3.7% | 99.5% | 104% | 77.5% | 32.5% | 0.3% | 106% | 98.8% | 71.2% | 27.1% | 0.4%
7 | Oc1ccc(Cl)c2c1CCC2 [chlorindanol] | 0 | 0 | 0 | 0 | 0.3 | > 10 µM | > 10 µM | > 10 µM | > 10 µM | > 10 µM | 99.5% | 100% | 103% | 96.4% | 103% | 115% | 93.9% | 84.6% | 105% | 99.5% | 99.8% | 118% | 107% | 109% | 96.9% | 101% | 98.8% | 97.1% | 107% | 98.9% | 110% | 89.5% | 97.9% | 95.2% | 84.1%
